Assay results: PubChem BioAssay AID1963828 (Molecular Pharmacology Branch, DTP, NCI, 2024)
pIC50: −log10 of the molar value.

Test system: 991263-137-R1-J2-PDC complex spheroid viability
Assay: Anticancer human tumor 991263-137-R1-J2-PDC patient-derived colon adenocarcinoma cell line growth inhibition [POLQ]
Settings: for pIC50: curve of first compound; for viability, T/C: stronger effect = lower value
Procedure, shortened: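 PDC + HUVEC + MSC complex spheroids; POLQ inhibitors ± partner drugs; top conc. at/near clinical Cmax, else 10 microM (SN-38 1 microM), half-log dilutions; 37 degrees C, 5% CO2.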

[1] = second compound 0.0316 µM, first compound 0.0316 µM
[2] = second compound 0.0316 µM, first compound 0.1 µM
[3] = second compound 0.0316 µM, first compound 0.316 µM
[4] = second compound 0.0316 µM, first compound 1 µM
[5] = second compound 0.1 µM, first compound 0.0316 µM
[6] = second compound 0.1 µM, first compound 0.1 µM
[7] = second compound 0.1 µM, first compound 0.316 µM
[8] = second compound 0.1 µM, first compound 1 µM
[9] = second compound 0.316 µM, first compound 0.0316 µM
[10] = second compound 0.316 µM, first compound 0.1 µM
[11] = second compound 0.316 µM, first compound 0.316 µM
[12] = second compound 0.316 µM, first compound 1 µM
[13] = second compound 1 µM, first compound 0.0316 µM
[14] = second compound 1 µM, first compound 0.1 µM
[15] = second compound 1 µM, first compound 0.316 µM
[16] = second compound 1 µM, first compound 1 µM
[17] = second compound 3.16 µM, first compound 0.0316 µM
[18] = second compound 3.16 µM, first compound 0.1 µM
[19] = second compound 3.16 µM, first compound 0.316 µM
[20] = second compound 3.16 µM, first compound 1 µM
[21] = second compound 10 µM, first compound 0.0316 µM
[22] = second compound 10 µM, first compound 0.1 µM
[23] = second compound 10 µM, first compound 0.316 µM
[24] = second compound 10 µM, first compound 1 µM
[25] = second compound 0.0316 µM, first compound 3.16 µM
[26] = second compound 0.0316 µM, first compound 10 µM
[27] = second compound 0.1 µM, first compound 3.16 µM
[28] = second compound 0.1 µM, first compound 10 µM
[29] = second compound 0.316 µM, first compound 3.16 µM
[30] = second compound 0.316 µM, first compound 10 µM
[31] = second compound 1 µM, first compound 3.16 µM
[32] = second compound 1 µM, first compound 10 µM
[33] = second compound 3.16 µM, first compound 3.16 µM
[34] = second compound 3.16 µM, first compound 10 µM
[35] = second compound 10 µM, first compound 3.16 µM
[36] = second compound 10 µM, first compound 10 µM
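Note: spheroids exposed to compounds for 7 days before readout.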
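Throughout, for viability, T/C: 100% = DMSO vehicle control viability.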

**Q.** With C=CCn1c(=O)c2cnc(Nc3ccc(N4CCN(C)CC4)cc3)nc2n1-c1cccc(C(C)(C)O)n1 + Cc1cccc(N(C)C(=O)C2C(O)CCN2c2nc(C)cc(C(F)(F)F)c2C#N)c1 as the compound, how does the pIC50 (second compound 0.0316 µM) read?
**A.** < 6.00

**Q.** What about the pIC50 (second compound 0.1 µM) of the same compound?
**A.** < 6.00

**Q.** What about the pIC50 (second compound 0.316 µM) of the same compound?
**A.** < 6.00

**Q.** What about the pIC50 (second compound 1 µM) of the same compound?
**A.** < 6.00

**Q.** And the pIC50 (second compound 3.16 µM)?
**A.** < 6.00

**Q.** What about the pIC50 (second compound 10 µM) of the same compound?
**A.** < 6.00

**Q.** What about the viability, T/C (second compound 0.0316 µM, first compound 0.00316 µM) of the same compound?
**A.** 103%

**Q.** And the viability, T/C (second compound 0.0316 µM, first compound 0.01 µM)?
**A.** 114%

**Q.** What about the viability, T/C [1] of the same compound?
**A.** 103%

**Q.** What about the viability, T/C [2] of the same compound?
**A.** 115%

**Q.** What about the viability, T/C [3] of the same compound?
**A.** 101%

**Q.** What about the viability, T/C [4] of the same compound?
**A.** 93%

**Q.** And the viability, T/C (second compound 0.1 µM, first compound 0.00316 µM)?
**A.** 108%

**Q.** And the viability, T/C (second compound 0.1 µM, first compound 0.01 µM)?
**A.** 110%

**Q.** And the viability, T/C [5]?
**A.** 107%

**Q.** And the viability, T/C [6]?
**A.** 102%

**Q.** And the viability, T/C [7]?
**A.** 108%

**Q.** And the viability, T/C [8]?
**A.** 90.1%

**Q.** What about the viability, T/C (second compound 0.316 µM, first compound 0.00316 µM) of the same compound?
**A.** 115%

**Q.** And the viability, T/C (second compound 0.316 µM, first compound 0.01 µM)?
**A.** 103%

**Q.** What about the viability, T/C [9] of the same compound?
**A.** 98.1%

**Q.** And the viability, T/C [10]?
**A.** 119%

**Q.** What about the viability, T/C [11] of the same compound?
**A.** 108%

**Q.** What about the viability, T/C [12] of the same compound?
**A.** 102%

**Q.** What about the viability, T/C (second compound 1 µM, first compound 0.00316 µM) of the same compound?
**A.** 99.1%

**Q.** And the viability, T/C (second compound 1 µM, first compound 0.01 µM)?
**A.** 101%

**Q.** What about the viability, T/C [13] of the same compound?
**A.** 96%

**Q.** And the viability, T/C [14]?
**A.** 97.6%

**Q.** And the viability, T/C [15]?
**A.** 110%

**Q.** And the viability, T/C [16]?
**A.** 94.2%

**Q.** And the viability, T/C (second compound 3.16 µM, first compound 0.00316 µM)?
**A.** 100%

**Q.** And the viability, T/C (second compound 3.16 µM, first compound 0.01 µM)?
**A.** 101%

**Q.** And the viability, T/C [17]?
**A.** 98.4%

**Q.** What about the viability, T/C [18] of the same compound?
**A.** 101%

**Q.** And the viability, T/C [19]?
**A.** 103%

**Q.** What about the viability, T/C [20] of the same compound?
**A.** 98.3%

**Q.** What about the viability, T/C (second compound 10 µM, first compound 0.00316 µM) of the same compound?
**A.** 98.8%

**Q.** What about the viability, T/C (second compound 10 µM, first compound 0.01 µM) of the same compound?
**A.** 110%

**Q.** What about the viability, T/C [21] of the same compound?
**A.** 99.5%

**Q.** And the viability, T/C [22]?
**A.** 106%

**Q.** What about the viability, T/C [23] of the same compound?
**A.** 105%

**Q.** And the viability, T/C [24]?
**A.** 95.2%

**Q.** Which results are given for CC1COCCN1c1cc(C2(S(C)(=N)=O)CC2)nc(-c2ccnc3[nH]ccc23)n1 (stereo unspecified) + Cc1cccc(N(C)C(=O)C2C(O)CCN2c2nc(C)cc(C(F)(F)F)c2C#N)c1?
**A.** pIC50 (second compound 0.0316 µM): < 5.00; pIC50 (second compound 0.1 µM): < 5.00; pIC50 (second compound 0.316 µM): < 5.00; pIC50 (second compound 1 µM): < 5.00; pIC50 (second compound 3.16 µM): < 5.00; pIC50 (second compound 10 µM): < 5.00; viability, T/C [1]: 96.9%; viability, T/C [2]: 107%; viability, T/C [3]: 122%; viability, T/C [4]: 104%; viability, T/C [25]: 111%; viability, T/C [26]: 90.9%; viability, T/C [5]: 101%; viability, T/C [6]: 103%; viability, T/C [7]: 95%; viability, T/C [8]: 96.2%; viability, T/C [27]: 117%; viability, T/C [28]: 106%; viability, T/C [9]: 95.7%; viability, T/C [10]: 108%; viability, T/C [11]: 73.7%; viability, T/C [12]: 112%; viability, T/C [29]: 84%; viability, T/C [30]: 70%; viability, T/C [13]: 98.7%; viability, T/C [14]: 102%; viability, T/C [15]: 94.3%; viability, T/C [16]: 75.4%; viability, T/C [31]: 96.7%; viability, T/C [32]: 92.5%; viability, T/C [17]: 88.1%; viability, T/C [18]: 95.2%; viability, T/C [19]: 99.2%; viability, T/C [20]: 106%; viability, T/C [33]: 101%; viability, T/C [34]: 101%; viability, T/C [21]: 93.2%; viability, T/C [22]: 97%; viability, T/C [23]: 98.8%; viability, T/C [24]: 98.5%; viability, T/C [35]: 98.8%; viability, T/C [36]: 77%

**Q.** CCCS(=O)(=O)Nc1ccc(F)c(C(=O)c2c[nH]c3ncc(-c4ccc(Cl)cc4)cc23)c1F + Cc1cccc(N(C)C(=O)C2C(O)CCN2c2nc(C)cc(C(F)(F)F)c2C#N)c1 was tested. Which pIC50 (second compound 0.0316 µM) did it give?
**A.** < 5.00

**Q.** What about the pIC50 (second compound 0.1 µM) of the same compound?
**A.** < 5.00

**Q.** And the pIC50 (second compound 0.316 µM)?
**A.** < 5.00

**Q.** And the pIC50 (second compound 1 µM)?
**A.** < 5.00

**Q.** What about the pIC50 (second compound 3.16 µM) of the same compound?
**A.** < 5.00

**Q.** And the pIC50 (second compound 10 µM)?
**A.** < 5.00

**Q.** What about the viability, T/C [1] of the same compound?
**A.** 112%

**Q.** And the viability, T/C [2]?
**A.** 98.6%

**Q.** What about the viability, T/C [3] of the same compound?
**A.** 98%

**Q.** And the viability, T/C [4]?
**A.** 103%

**Q.** What about the viability, T/C [25] of the same compound?
**A.** 106%

**Q.** And the viability, T/C [26]?
**A.** 99.9%

**Q.** And the viability, T/C [5]?
**A.** 103%

**Q.** What about the viability, T/C [6] of the same compound?
**A.** 109%

**Q.** What about the viability, T/C [7] of the same compound?
**A.** 105%

**Q.** What about the viability, T/C [8] of the same compound?
**A.** 114%

**Q.** And the viability, T/C [27]?
**A.** 106%

**Q.** What about the viability, T/C [28] of the same compound?
**A.** 104%

**Q.** And the viability, T/C [9]?
**A.** 101%

**Q.** And the viability, T/C [10]?
**A.** 102%

**Q.** And the viability, T/C [11]?
**A.** 85.2%

**Q.** And the viability, T/C [12]?
**A.** 97.5%

**Q.** What about the viability, T/C [29] of the same compound?
**A.** 101%

**Q.** What about the viability, T/C [30] of the same compound?
**A.** 106%

**Q.** What about the viability, T/C [13] of the same compound?
**A.** 96.8%

**Q.** And the viability, T/C [14]?
**A.** 97.5%

**Q.** What about the viability, T/C [15] of the same compound?
**A.** 95.5%

**Q.** What about the viability, T/C [16] of the same compound?
**A.** 95.7%

**Q.** What about the viability, T/C [31] of the same compound?
**A.** 100%

**Q.** And the viability, T/C [32]?
**A.** 92.3%

**Q.** What about the viability, T/C [17] of the same compound?
**A.** 99.8%

**Q.** And the viability, T/C [18]?
**A.** 96.7%

**Q.** And the viability, T/C [19]?
**A.** 93.5%

**Q.** And the viability, T/C [20]?
**A.** 99.1%

**Q.** What about the viability, T/C [33] of the same compound?
**A.** 109%

**Q.** And the viability, T/C [34]?
**A.** 84.5%

**Q.** And the viability, T/C [21]?
**A.** 101%

**Q.** And the viability, T/C [22]?
**A.** 98.5%

**Q.** And the viability, T/C [23]?
**A.** 97.3%

**Q.** What about the viability, T/C [24] of the same compound?
**A.** 92.5%

**Q.** What about the viability, T/C [35] of the same compound?
**A.** 101%

**Q.** And the viability, T/C [36]?
**A.** 89.2%
